From publication PMC10108347, “Heterobifunctional Ligase Recruiters Enable pan-Degradation of Inhibitor of Apoptosis Proteins” (Journal of Medicinal Chemistry, 2023)
Entries after “also recorded” stand apart in the source; their conditions may differ. Read-outs that look alike come from different tables or passages of the source.

Columns and labels:
[1] = Log D7.4 measurement by chromatographic (fast-gradient HPLC) method; conditions: pH 7.4
Method: The system was calibrated by plotting the retention times of six different drugs (atenolol, metoprolol, labetalol, diltiazem, triphenylene, and permethrin) versus their literature-known log D7.4 in a calibration line (R^2 = 0.99). Subsequently, the mean retention times of the analytes were taken to calculate their log D7.4 values with the aid of the calibration line. At least two independent measurements of each analyte were performed.

[2] = target: cIAP2 (Homo sapiens, UniProt Q13489); test: Immunoblotting (western blot) quantification of cIAP2 levels in MM.1S cells; conditions: MM1.S, 16 h
[3] = target: T1, plasma protein (HSA column) (Homo sapiens, UniProt P02768); test: Plasma protein binding estimated by HPLC on a […] HSA column; format: in vitro ADME; conditions: CHIRALPAK HSA column (50 × 3 mm, 5 μm), estimated by an HPLC-based method, read-out: PPB (plasma protein binding) (converted)
T1 construct: purchased
Method: Plasma protein binding (% PPB) was estimated by correlating the logarithmic retention times of the analytes on a […] HSA 50 × 3 mm, 5 μm column with the literature-known % PPB values (converted into log K values) of the following drugs: warfarin, ketoprofen, budesonide, nizatidine, indomethacin, acetylsalicylic acid, carbamazepine, piroxicam, nicardipine, and cimetidine (for details, see Valko et al.).[67] The samples were dissolved in MeCN/DMSO 9:1 to achieve a final concentration of 0.5 mg/mL. Mobile phase A was 50 mM ammonium acetate adjusted to pH 7.4 with ammonia solution, while mobile phase B was iPrOH. The flow rate was set to 1.0 mL/min, the UV detector was set to 254 nm, and the column temperature was kept at 30 °C. After injecting 2 μL of the sample, a linear gradient from 100% A to 30% iPrOH in 5.4 min was applied. From 5.4 to 18 min, 30% iPrOH was kept, followed by switching back to 100% A in 1.0 min and a re-equilibration time of 6 min. With the aid of the calibration line (R^2 = 0.96), the log K values of new substances were calculated and converted to their % PPB values.

[4] = target: cIAP1 (Homo sapiens, UniProt Q13490); test: Immunoblotting (western blot) quantification of cIAP1 levels in MM.1S cells; conditions: MM1.S, 16 h
[5] = target: XIAP (Homo sapiens, UniProt P98170); test: Immunoblotting (western blot) quantification of XIAP levels in MM.1S cells; conditions: 16 h; for remaining activity at 0.1 µM: MM1.S
[6] = target: VHL30 (Homo sapiens, UniProt P40337); test: Immunoblotting (western blot) quantification of VHL30 levels in MM.1S cells; conditions: MM1.S, 16 h
[7] = test system: IAPs (cIAP1, cIAP2, XIAP); test: Immunoblotting of IAPs in MM.1S cells, overall degradation profile, time course and washout; format: cell-based; conditions: 16 h, western blot, concentration (10 nM to 1 μM)
Method: Next, we examined the persistence of IAP degradation in MM.1S cells after a single exposure to 1 μM of 9 and subsequent removal of the compound. […] The reliance on CRL2^VHL was assessed with a neddylation inhibitor MLN4924, which blocks the activity of CRLs (Figure S13A).

[8] = read-out: %remaining protein cIAP2
[9] = read-out: %remaining protein cIAP1
[10] = read-out: %remaining protein XIAP
[11] = read-out: %remaining protein VHL30

Sequence of VHL30 (P40337 whole entry): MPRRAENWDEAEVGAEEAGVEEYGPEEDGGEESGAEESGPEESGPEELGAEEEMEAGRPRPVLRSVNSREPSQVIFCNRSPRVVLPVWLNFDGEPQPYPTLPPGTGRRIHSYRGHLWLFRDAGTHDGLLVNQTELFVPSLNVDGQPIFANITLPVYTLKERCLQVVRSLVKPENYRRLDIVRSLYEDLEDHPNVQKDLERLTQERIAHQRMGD
Sequence of XIAP (P98170 whole entry): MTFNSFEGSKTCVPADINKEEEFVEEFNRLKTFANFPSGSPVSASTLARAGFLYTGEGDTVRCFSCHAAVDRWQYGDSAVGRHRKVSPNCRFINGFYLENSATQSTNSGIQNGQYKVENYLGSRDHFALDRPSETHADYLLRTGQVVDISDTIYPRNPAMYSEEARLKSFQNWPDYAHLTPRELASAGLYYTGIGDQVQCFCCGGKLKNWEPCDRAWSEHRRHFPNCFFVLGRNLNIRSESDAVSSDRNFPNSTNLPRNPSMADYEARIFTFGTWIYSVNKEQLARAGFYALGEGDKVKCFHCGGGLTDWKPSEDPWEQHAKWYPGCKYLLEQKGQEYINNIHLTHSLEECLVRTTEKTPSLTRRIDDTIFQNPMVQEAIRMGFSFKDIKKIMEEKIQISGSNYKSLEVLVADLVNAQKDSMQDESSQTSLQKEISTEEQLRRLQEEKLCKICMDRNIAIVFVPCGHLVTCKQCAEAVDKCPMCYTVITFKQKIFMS
T1 sequence (P02768 25-609): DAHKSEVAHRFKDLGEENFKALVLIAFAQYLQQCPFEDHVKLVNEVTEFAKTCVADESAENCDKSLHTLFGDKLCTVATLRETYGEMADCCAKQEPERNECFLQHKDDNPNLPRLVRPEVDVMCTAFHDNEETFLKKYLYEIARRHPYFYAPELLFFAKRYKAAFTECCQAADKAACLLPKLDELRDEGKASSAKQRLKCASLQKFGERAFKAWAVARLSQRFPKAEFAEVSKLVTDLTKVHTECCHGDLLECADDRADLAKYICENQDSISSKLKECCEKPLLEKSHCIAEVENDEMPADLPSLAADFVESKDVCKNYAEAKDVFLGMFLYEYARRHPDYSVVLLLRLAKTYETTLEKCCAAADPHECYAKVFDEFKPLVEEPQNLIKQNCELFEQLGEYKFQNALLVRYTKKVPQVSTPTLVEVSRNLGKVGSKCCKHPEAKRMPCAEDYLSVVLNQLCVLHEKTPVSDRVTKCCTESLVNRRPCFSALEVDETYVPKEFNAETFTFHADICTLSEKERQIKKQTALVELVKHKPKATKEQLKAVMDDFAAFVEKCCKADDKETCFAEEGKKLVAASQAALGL
Sequence of cIAP2 (Q13489 whole entry): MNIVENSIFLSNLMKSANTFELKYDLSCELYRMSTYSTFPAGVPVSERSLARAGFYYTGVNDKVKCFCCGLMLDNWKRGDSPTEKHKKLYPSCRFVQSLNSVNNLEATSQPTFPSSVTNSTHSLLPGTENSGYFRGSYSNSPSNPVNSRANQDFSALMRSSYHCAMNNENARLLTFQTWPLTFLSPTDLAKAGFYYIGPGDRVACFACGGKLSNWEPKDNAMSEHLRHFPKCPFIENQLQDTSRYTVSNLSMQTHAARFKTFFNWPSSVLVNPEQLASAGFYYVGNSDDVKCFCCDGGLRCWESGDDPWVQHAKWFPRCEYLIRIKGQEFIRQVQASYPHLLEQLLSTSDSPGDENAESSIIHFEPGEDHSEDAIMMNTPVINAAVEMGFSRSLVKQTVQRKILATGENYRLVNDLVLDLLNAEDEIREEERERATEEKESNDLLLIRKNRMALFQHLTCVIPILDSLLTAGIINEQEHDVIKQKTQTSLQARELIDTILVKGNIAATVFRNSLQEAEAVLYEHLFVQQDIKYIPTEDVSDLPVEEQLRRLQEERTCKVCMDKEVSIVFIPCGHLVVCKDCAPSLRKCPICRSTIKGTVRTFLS
Sequence of cIAP1 (Q13490 whole entry): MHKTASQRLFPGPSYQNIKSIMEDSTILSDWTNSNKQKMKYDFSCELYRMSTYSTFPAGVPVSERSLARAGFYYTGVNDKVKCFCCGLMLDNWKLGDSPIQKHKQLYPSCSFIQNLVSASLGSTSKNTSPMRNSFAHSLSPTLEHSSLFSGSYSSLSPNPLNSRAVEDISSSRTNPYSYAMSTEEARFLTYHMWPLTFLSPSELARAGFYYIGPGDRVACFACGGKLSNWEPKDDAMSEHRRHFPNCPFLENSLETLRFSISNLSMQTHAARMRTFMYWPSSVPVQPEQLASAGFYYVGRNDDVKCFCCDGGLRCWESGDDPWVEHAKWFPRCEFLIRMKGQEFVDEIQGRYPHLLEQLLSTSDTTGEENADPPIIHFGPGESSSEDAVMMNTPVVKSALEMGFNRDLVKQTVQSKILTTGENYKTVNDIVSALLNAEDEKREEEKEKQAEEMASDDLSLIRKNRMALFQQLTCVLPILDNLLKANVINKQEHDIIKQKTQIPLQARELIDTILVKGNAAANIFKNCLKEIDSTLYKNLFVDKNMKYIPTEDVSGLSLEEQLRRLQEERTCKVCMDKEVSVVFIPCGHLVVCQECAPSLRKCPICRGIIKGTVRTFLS

| Compound | chromatographic logD [1] | remaining activity at 0.1 µM [2, 8] | fraction unbound at 0.5 mg/mL [3] | remaining activity at 0.1 µM [4, 9] | remaining activity at 0.1 µM [5, 10] | remaining activity at 0.1 µM [6, 11] | XIAP degradation (in words) ([5]; MM.1S cells, western blot, 0.1 or 1 μM) | IAP degradation profile (in words) [7] | remaining activity at 0.1 µM ([2]; read-out: %remaining protein cIAP2, MM.1S cells, 16 h treatment at 0.1 μM, normalized to loading control and DMSO) | remaining activity at 0.1 µM ([4]; read-out: %remaining protein cIAP1, MM.1S cells, 16 h treatment at 0.1 μM, normalized to loading control and DMSO) | remaining activity at 0.1 µM ([5]; read-out: %remaining protein XIAP, MM.1S cells, 16 h treatment at 0.1 μM, normalized to loading control and DMSO) | remaining activity at 0.1 µM ([6]; read-out: %remaining protein VHL30, MM.1S cells, 16 h treatment at 0.1 μM, normalized to loading control and DMSO) |
| --- | --- | --- | --- | --- | --- | --- | --- | --- | --- | --- | --- | --- |
| CN[C@@H](C)C(=O)N[C@H](C(=O)N1C[C@@H](Oc2cccc(OCCCCOCCCCOc3cc(-c4scnc4C)ccc3CNC(=O)[C@@H]3C[C@@H](O)CN3C(=O)[C@H](C(C)C)N3Cc4ccccc4C3=O)c2)C[C@H]1C(=O)N[C@@H]1CCCc2ccccc21)C1CCCCC1 [PROTAC 14, (2S,4S)-1-((S)-2-Cyclohexyl-2-((S)-2-(methylamino)propanamido)acetyl)-4-(3-(4-(4-(2-(((2S,4R)-4-hydroxy-1-((S)-3-methyl-2-(1-oxoisoindolin-2-yl)butanoyl)pyrrolidine-2-carboxamido)methyl)-5-(4-methylthiazol-5-yl)phenoxy)butoxy)butoxy)phenoxy)-N-((R)-1,2,3,4-tetrahydronaphthalen-1-yl)pyrrolidine-2-carboxamide] | 4.2 | 15% | 0.04 | 2% | 3% | 39% |  |  |  |  |  |  |
| CN[C@@H](C)C(=O)N[C@H](C(=O)N1C[C@@H](Oc2cccc(OCCCCCCOCCCCCCOCCOc3cc(-c4scnc4C)ccc3CNC(=O)[C@@H]3C[C@@H](O)CN3C(=O)[C@H](C(C)C)N3Cc4ccccc4C3=O)c2)C[C@H]1C(=O)N[C@@H]1CCCc2ccccc21)C1CCCCC1 [PROTAC 17, (2S,4S)-1-((S)-2-Cyclohexyl-2-((S)-2-(methylamino)propanamido)acetyl)-4-(3-((6-((6-(2-(2-(((2S,4R)-4-hydroxy-1-((S)-3-methyl-2-(1-oxoisoindolin-2-yl)butanoyl)pyrrolidine-2-carboxamido)methyl)-5-(4-methylthiazol-5-yl)phenoxy)ethoxy)hexyl)oxy)hexyl)oxy)phenoxy)-N-((R)-1,2,3,4-tetrahydronaphthalen-1-yl)pyrrolidine-2-carboxamide] | 5.2 | 31% | 0.03 | 3% | 1% | 81% |  |  |  |  |  |  |
| CN[C@@H](C)C(=O)N[C@H](C(=O)N1CCC[C@H]1c1nc(C(=O)c2ccc(F)cc2)cs1)C1CCCCC1 [LCL161, reference compound] | 3.3 |  | 0.12 |  |  |  | failed to degrade XIAP |  |  |  |  |  |
| CN[C@@H](C)C(=O)N[C@H](C(=O)N1C[C@@H](Oc2cccc(OCCCCCCOCCCCCCOCCCCCCOc3cc(-c4scnc4C)ccc3CNC(=O)[C@@H]3C[C@@H](O)CN3C(=O)[C@H](C(C)C)N3Cc4ccccc4C3=O)c2)C[C@H]1C(=O)N[C@@H]1CCCc2ccccc21)C1CCCCC1 [PROTAC 19, (2S,4S)-1-((S)-2-Cyclohexyl-2-((S)-2-(methylamino)propanamido)acetyl)-4-(3-((6-((6-((6-(2-(((2S,4R)-4-hydroxy-1-((S)-3-methyl-2-(1-oxoisoindolin-2-yl)butanoyl)pyrrolidine-2-carboxamido)methyl)-5-(4-methylthiazol-5-yl)phenoxy)hexyl)oxy)hexyl)oxy)hexyl)oxy)phenoxy)-N-((R)-1,2,3,4-tetrahydronaphthalen-1-yl)pyrrolidine-2-carboxamide] | 6.3 | 84% |  | 27% | 34% | 95% |  | dual cIAP1/XIAP degradation at 0.1 μM concentration; also recorded: pan-IAP degradation at 1 μM; also recorded: no degradation at 10 nM |  |  |  |  |
| CN[C@@H](C)C(=O)N[C@H](C(=O)N1C[C@@H](Oc2cccc(OCCCCCOc3cc(-c4scnc4C)ccc3CNC(=O)[C@@H]3C[C@@H](O)CN3C(=O)[C@H](C(C)C)N3Cc4ccccc4C3=O)c2)C[C@H]1C(=O)N[C@@H]1CCCc2ccccc21)C1CCCCC1 [PROTAC 12, (2S,4S)-1-((S)-2-Cyclohexyl-2-((S)-2-(methylamino)propanamido)acetyl)-4-(3-((5-(2-(((2S,4R)-4-hydroxy-1-((S)-3-methyl-2-(1-oxoisoindolin-2-yl)butanoyl)pyrrolidine-2-carboxamido)methyl)-5-(4-methylthiazol-5-yl)phenoxy)pentyl)oxy)phenoxy)-N-((R)-1,2,3,4-tetrahydronaphthalen-1-yl)pyrrolidine-2-carboxamide] | 4 | 29% | 0.04 | 4% | 5% | 55% |  |  |  |  |  |  |
| CN[C@H](C)C(=O)N[C@H](C(=O)N1C[C@@H](Oc2cccc(OCCCCC(=O)N[C@H](C(=O)N3C[C@H](O)C[C@H]3C(=O)N[C@@H](C)c3ccc(-c4scnc4C)cc3)C(C)(C)C)c2)C[C@H]1C(=O)N[C@@H]1CCCc2ccccc21)C1CCCCC1 [PROTAC 10a, (2S,4S)-1-((S)-2-Cyclohexyl-2-((R)-2-(methylamino)propanamido)acetyl)-4-(3-((5-(((S)-1-((2S,4R)-4-hydroxy-2-(((S)-1-(4-(4-methylthiazol-5-yl)phenyl)ethyl)carbamoyl)pyrrolidin-1-yl)-3,3-dimethyl-1-oxobutan-2-yl)amino)-5-oxopentyl)oxy)phenoxy)-N-((R)-1,2,3,4-tetrahydronaphthalen-1-yl)pyrrolidine-2-carboxamide] |  |  |  |  |  |  |  | pan-IAP | 37% | 6% | 8% | 41% |
| CN[C@@H](C)C(=O)N[C@H](C(=O)N1C[C@@H](Oc2cccc(OCCOCCOCCOc3cc(-c4scnc4C)ccc3CNC(=O)[C@@H]3C[C@@H](O)CN3C(=O)[C@H](C(C)C)N3Cc4ccccc4C3=O)c2)C[C@H]1C(=O)N[C@@H]1CCCc2ccccc21)C1CCCCC1 [PROTAC 15, (2S,4S)-1-((S)-2-Cyclohexyl-2-((S)-2-(methylamino)propanamido)acetyl)-4-(3-(2-(2-(2-(2-(((2S,4R)-4-hydroxy-1-((S)-3-methyl-2-(1-oxoisoindolin-2-yl)butanoyl)pyrrolidine-2-carboxamido)methyl)-5-(4-methylthiazol-5-yl)phenoxy)ethoxy)ethoxy)ethoxy)phenoxy)-N-((R)-1,2,3,4-tetrahydronaphthalen-1-yl)pyrrolidine-2-carboxamide] | 3.4 | 32% | 0.05 | 3% | 3% | 51% |  |  |  |  |  |  |
| CN[C@@H](C)C(=O)N[C@H](C(=O)N1C[C@@H](Oc2cccc(OCCOCCOCCOCCOc3cc(-c4scnc4C)ccc3CNC(=O)[C@@H]3C[C@@H](O)CN3C(=O)[C@H](C(C)C)N3Cc4ccccc4C3=O)c2)C[C@H]1C(=O)N[C@@H]1CCCc2ccccc21)C1CCCCC1 [PROTAC 16, (2S,4S)-1-((S)-2-Cyclohexyl-2-((S)-2-(methylamino)propanamido)acetyl)-4-(3-(2-(2-(2-(2-(2-(((2S,4R)-4-hydroxy-1-((S)-3-methyl-2-(1-oxoisoindolin-2-yl)butanoyl)pyrrolidine-2-carboxamido)methyl)-5-(4-methylthiazol-5-yl)phenoxy)ethoxy)ethoxy)ethoxy)ethoxy)phenoxy)-N-((R)-1,2,3,4-tetrahydronaphthalen-1-yl)pyrrolidine-2-carboxamide] | 3.3 | 31% | 0.05 | 3% | 2% | 41% |  |  |  |  |  |  |
